# Test results taken from PubChem BioAssay AID220 (DTP/NCI, 2004).
# Where “and” joins values, the source holds several entries; their conditions need not be identical. Identical values can stand only once. Records with an inconclusive call do not appear.
# Test system: CD8F1 mice, subcutaneous mammary adenocarcinoma, T/C%
# Test: NCI In Vivo Anticancer Drug Screen. Data for tumor model Mammary Adenocarcinoma CD8F1 (subcutaneous) in CD8F1
# Details: higher = larger tumour
# Procedure, shortened: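 Mice carrying transplanted tumors received test compound, and survival or tumor size was recorded. Each value is the treated-group measurement divided by the corresponding measurement in vehicle-dosed controls.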
# [1] = endpoint: median tumor weight (est.), dose: 12.5 mg/kg/injection, schedule: Q07DX005 (ip), vehicle: saline with Tween-80
# [2] = endpoint: median tumor weight (est.), dose: 25.0 mg/kg/injection, schedule: Q07DX005 (ip), vehicle: saline with Tween-80
# [3] = endpoint: median tumor weight (est.), dose: 12.5 mg/kg/injection, schedule: Q07DX005 (ip), vehicle: suspension in saline
# [4] = endpoint: median tumor weight (est.), dose: 50.0 mg/kg/injection, schedule: Q07DX005 (ip), vehicle: suspension in saline
smiles,measurement,setting,value
CN1CCN(CCCN2c3ccccc3Sc3ccc(C(F)(F)F)cc32)CC1,T/C,"endpoint: median tumor weight (est.), dose: 6.25 mg/kg/injection, schedule: Q07DX005 (ip), vehicle: saline with Tween-80",178 % of control
same,T/C,"endpoint: median tumor weight (est.), dose: 6.25 mg/kg/injection, schedule: Q07DX005 (ip), vehicle: saline",183 % of control
same,T/C,[1],202 % of control
same,T/C,"endpoint: median tumor weight (est.), dose: 12.5 mg/kg/injection, schedule: Q07DX005 (ip), vehicle: saline",97 % of control
same,T/C,[2],65 % of control
same,T/C,"endpoint: median tumor weight (est.), dose: 25.0 mg/kg/injection, schedule: Q07DX005 (ip), vehicle: saline",108 % of control
same,T/C,"endpoint: median tumor weight (est.), dose: 50.0 mg/kg/injection, schedule: Q07DX005 (ip), vehicle: saline",162 % of control
same,T/C,"endpoint: median tumor weight (est.), dose: 100.0 mg/kg/injection, schedule: Q07DX005 (ip), vehicle: saline with Tween-80",95 % of control
same,T/C,"endpoint: median tumor weight (est.), dose: 100.0 mg/kg/injection, schedule: Q07DX005 (ip), vehicle: saline",70 % of control
C#CCNC1=C(C)C(=O)C2=C(C1=O)[C@H](COC(N)=O)[C@]1(OC)[C@@H]3N[C@@H]3CN21,T/C,"endpoint: median tumor weight change, dose: 16.0 mg/kg/injection, schedule: Q01DX001 (ip), vehicle: distilled water + Tween-80",75 % of control
same,T/C,"endpoint: median tumor weight change, dose: 31.0 mg/kg/injection, schedule: Q01DX001 (ip), vehicle: distilled water + Tween-80",27 % of control
O=c1n(CC2CO2)c(=O)n(CC2CO2)c(=O)n1CC1CO1 (stereo unspecified),T/C,"endpoint: median tumor weight (est.), dose: 12.5 mg/kg/injection, schedule: Q07DX004 (ip), vehicle: saline with Tween-80",64 % of control
same,T/C,[1],17 % of control
same,T/C,[3],69 % of control and 55 % of control
same,T/C,"endpoint: median tumor weight (est.), dose: 25.0 mg/kg/injection, schedule: Q07DX004 (ip), vehicle: saline with Tween-80",79 % of control
same,T/C,[2],4 % of control
same,T/C,"endpoint: median tumor weight (est.), dose: 50.0 mg/kg/injection, schedule: Q07DX004 (ip), vehicle: saline with Tween-80",42 % of control
same,T/C,[4],12 % of control and 35 % of control
COC(=O)[C@@H]1c2cc3c(c(O)c2[C@@H](OC)C[C@@]1(C)O)C(=O)c1c(O)cc2c(c1C3=O)OC1O[C@@]2(C)[C@H](O)[C@@H](N(C)C)[C@@H]1O,T/C,[3],73 % of control
same,T/C,[4],61 % of control and 66 % of control
same,T/C,"endpoint: median tumor weight (est.), dose: 100.0 mg/kg/injection, schedule: Q07DX005 (ip), vehicle: suspension in saline",151 % of control
CCCC(=O)O,T/C,"endpoint: median tumor weight change, dose: 7.81 mg/kg/injection, schedule: Q01DX001 (ip), vehicle: saline",88 % of control
same,T/C,"endpoint: median tumor weight change, dose: 15.62 mg/kg/injection, schedule: Q01DX001 (ip), vehicle: saline",166 % of control
same,T/C,"endpoint: median tumor weight change, dose: 31.25 mg/kg/injection, schedule: Q01DX001 (ip), vehicle: saline",97 % of control
same,T/C,"endpoint: median tumor weight change, dose: 62.5 mg/kg/injection, schedule: Q01DX001 (ip), vehicle: saline",80 % of control
same,T/C,"endpoint: median tumor weight change, dose: 125.0 mg/kg/injection, schedule: Q01DX001 (ip), vehicle: saline",71 % of control
NC(=S)N/N=C/c1ccc(OC(=O)COc2ccccc2)cn1,T/C,"endpoint: mean tumor weight, dose: 12.5 mg/kg/injection, schedule: Q07DX005 (ip), vehicle: saline with Tween-80",99 % of control
same,T/C,"endpoint: mean tumor weight, dose: 12.5 mg/kg/injection, schedule: Q07DX006 (ip), vehicle: saline with Tween-80",96 % of control
same,T/C,"endpoint: mean tumor weight, dose: 25.0 mg/kg/injection, schedule: Q07DX005 (ip), vehicle: saline with Tween-80",89 % of control
same,T/C,"endpoint: mean tumor weight, dose: 25.0 mg/kg/injection, schedule: Q07DX006 (ip), vehicle: saline with Tween-80",106 % of control
same,T/C,"endpoint: mean tumor weight, dose: 50.0 mg/kg/injection, schedule: Q07DX005 (ip), vehicle: saline with Tween-80",86 % of control
same,T/C,"endpoint: mean tumor weight, dose: 50.0 mg/kg/injection, schedule: Q07DX006 (ip), vehicle: saline with Tween-80",83 % of control
same,T/C,"endpoint: mean tumor weight, dose: 100.0 mg/kg/injection, schedule: Q07DX005 (ip), vehicle: saline with Tween-80",52 % of control
same,T/C,"endpoint: mean tumor weight, dose: 100.0 mg/kg/injection, schedule: Q07DX006 (ip), vehicle: saline with Tween-80",101 % of control
same,T/C,"endpoint: mean tumor weight, dose: 200.0 mg/kg/injection, schedule: Q07DX005 (ip), vehicle: saline with Tween-80",65 % of control
same,T/C,"endpoint: mean tumor weight, dose: 200.0 mg/kg/injection, schedule: Q07DX006 (ip), vehicle: saline with Tween-80",33 % of control
